Measured values published in ChEMBL document CHEMBL1131998, “Synthesis and biological evaluation of 1,1-difluoro-2-(tetrahydro-3-furanyl)ethylphosphonic acids possessing a N9-purinylmethyl functional group at the ring. a new class of inhibitors for purine nucleoside phosphorylases” (Bioorg Med Chem Lett, 1999).

Experiments:
[1] = molecular target: T1, Purine nucleoside phosphorylase (Homo sapiens, UniProt P00491); assay: (§1) Compound was evaluated for inhibition of PNP-catalyzed inosine phosphorylation in human erythrocyte; assay type: functional
T1 sequence (P00491 whole entry): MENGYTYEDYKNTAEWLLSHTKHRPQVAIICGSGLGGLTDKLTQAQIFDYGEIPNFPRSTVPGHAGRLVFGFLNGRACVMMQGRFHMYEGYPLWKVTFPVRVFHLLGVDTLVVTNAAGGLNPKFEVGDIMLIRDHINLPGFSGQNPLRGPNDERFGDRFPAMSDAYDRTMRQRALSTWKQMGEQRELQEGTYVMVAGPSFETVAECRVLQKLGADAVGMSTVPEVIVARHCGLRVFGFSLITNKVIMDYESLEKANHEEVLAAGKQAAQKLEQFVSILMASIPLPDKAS

[2] = molecular target: T1, Purine nucleoside phosphorylase; assay: as §1

SMILES	IC50 [1]	Ki [2]
Nc1nc2c(ncn2CCCCC(F)(F)P(=O)(O)O)c(=O)[nH]1	380 nM	53 nM
O=c1[nH]cnc2c1ncn2CC[C@@H]1C[C@H]1C(F)(F)P(=O)(O)O	340 nM	8.8 nM
O=P(O)(O)C(F)(F)C[C@H]1COC[C@H]1Cn1cnc2c(O)ncnc21	88 nM	15.2 nM
O=P(O)(O)C(F)(F)C[C@H]1COC[C@@H]1Cn1cnc2c(O)ncnc21	320 nM	–
Nc1nc2c(ncn2CC[C@@H]2C[C@H]2C(F)(F)P(=O)(O)O)c(=O)[nH]1 (racemic)	330 nM	28.2 nM
